Results taken from paper PMC9603901, “Therapeutic Potential of Antimicrobial Peptide PN5 against Multidrug-Resistant E. coli and Anti-Inflammatory Activity in a Septic Mouse Model” (Microbiology Spectrum, 2022).
Converted amounts (≈) assume the structure as drawn. Where two headings read alike, the source gives them in different places.

What was measured:
MDR E. coli ASEC 18 = test system: MDR E. coli ASEC 18; design: method as in Asan hospital; key to susceptibility category: S: susceptible; R: resistant; I: intermediate; settings: ref Asan hospital, cited from earlier work; for MIC: ASEC 18 (AmpC), resistance information of clinical isolate; for susceptibility category: ASEC 18
MDR E. coli ASEC 10 = test system: MDR E. coli ASEC 10; design: method as in Asan hospital; key to susceptibility category: S: susceptible; R: resistant; I: intermediate; settings: ref Asan hospital, cited from earlier work; for MIC: ASEC 10 (ESBL), resistance information of clinical isolate; for susceptibility category: ASEC 10
MDR E. coli ASEC 8 = test system: MDR E. coli ASEC 8; design: method as in Asan hospital; key to susceptibility category: S: susceptible; R: resistant; I: intermediate; settings: ref Asan hospital, cited from earlier work; for MIC: ASEC 8 (ESBL), resistance information of clinical isolate; for susceptibility category: ASEC 8
MDR E. coli ASEC 3 = test system: MDR E. coli ASEC 3; design: method as in Asan hospital; key to susceptibility category: S: susceptible; R: resistant; I: intermediate; settings: ref Asan hospital, cited from earlier work; for MIC: ASEC 3 (NDM-5), resistance information of clinical isolate; for susceptibility category: ASEC 3
MDR E. coli ASEC 6 = test system: MDR E. coli ASEC 6; design: method as in Asan hospital; key to susceptibility category: S: susceptible; R: resistant; I: intermediate; settings: ref Asan hospital, cited from earlier work; for MIC: ASEC 6 (ESBL), resistance information of clinical isolate; for susceptibility category: ASEC 6
MDR E. coli ASEC 12 = test system: MDR E. coli ASEC 12; design: method as in Asan hospital; key to susceptibility category: S: susceptible; R: resistant; I: intermediate; settings: ref Asan hospital, cited from earlier work; for MIC: ASEC 12 (AmpC), resistance information of clinical isolate; for susceptibility category: ASEC 12
MDR E. coli ASEC 14 = test system: MDR E. coli ASEC 14; design: method as in Asan hospital; key to susceptibility category: S: susceptible; R: resistant; I: intermediate; settings: ref Asan hospital, cited from earlier work; for MIC: ASEC 14 (AmpC), resistance information of clinical isolate; for susceptibility category: ASEC 14
MDR E. coli ASEC 13 = test system: MDR E. coli ASEC 13; design: method as in Asan hospital; key to susceptibility category: S: susceptible; R: resistant; I: intermediate; settings: ref Asan hospital, cited from earlier work; for MIC: ASEC 13 (AmpC), resistance information of clinical isolate; for susceptibility category: ASEC 13
MDR E. coli ASEC 17 = test system: MDR E. coli ASEC 17; design: method as in Asan hospital; key to susceptibility category: S: susceptible; R: resistant; I: intermediate; settings: ref Asan hospital, cited from earlier work; for MIC: ASEC 17 (AmpC), resistance information of clinical isolate; for susceptibility category: ASEC 17
MDR E. coli ASEC 7 = test system: MDR E. coli ASEC 7; design: method as in Asan hospital; key to susceptibility category: S: susceptible; R: resistant; I: intermediate; settings: ref Asan hospital, cited from earlier work; for MIC: ASEC 7 (ESBL), resistance information of clinical isolate; for susceptibility category: ASEC 7
E. coli ATCC 25922 = test: microbe, parasite or virus in culture; type: cell-based, Escherichia coli; settings: for fold increase of MIC after 25 passages: E. coli ATCC 25922 passaged with 0.5× MIC of the same agent; for MIC: Escherichia coli
Protocol: (§1) E. coli ATCC 25922 cells were incubated overnight at 37°C in LB medium with shaking (180 rpm) and then adjusted to 2 × 10^5 CFU mL^−1; 0.5× MIC of PN5 and antibiotics were added to the medium and cultured overnight at 37°C with aeration (180 rpm). The MIC was determined by measuring the OD600 using a Versa Max microplate reader. On the next day, to measure the MIC with the bacteria grown after treatment with 0.5× MIC, the bacteria and antibiotic were adjusted to the same concentration, and the bacteria were cultured by adding 0.5× MIC in the same manner. The initial culture was continuously cultured for 25 passages in this manner.

[1] = test system: E. coli – Ceftazidime (Passage 25); test: microbe, parasite or virus in culture; type: cell-based, Escherichia coli; settings: Escherichia coli
Protocol: as §1

[2] = test system: E. coli – Meropenem (Passage 25); test: microbe, parasite or virus in culture; type: cell-based, Escherichia coli; settings: Escherichia coli
Protocol: as §1

MDR E. coli ASEC 9 = test system: MDR E. coli ASEC 9; design: method as in Asan hospital; key to susceptibility category: S: susceptible; R: resistant; I: intermediate; settings: ref Asan hospital, cited from earlier work; for MIC: ASEC 9 (ESBL), resistance information of clinical isolate; for susceptibility category: ASEC 9
MDR E. coli ASEC 2 = test system: MDR E. coli ASEC 2; design: method as in Asan hospital; key to susceptibility category: S: susceptible; R: resistant; I: intermediate; settings: ref Asan hospital, cited from earlier work; for MIC: ASEC 2 (NDM-7), resistance information of clinical isolate; for susceptibility category: ASEC 2
MDR E. coli ASEC 4 = test system: MDR E. coli ASEC 4; design: method as in Asan hospital; key to susceptibility category: S: susceptible; R: resistant; I: intermediate; settings: ref Asan hospital, cited from earlier work; for MIC: ASEC 4 (ESBL), resistance information of clinical isolate; for susceptibility category: ASEC 4
MDR E. coli ASEC 15 = test system: MDR E. coli ASEC 15; design: method as in Asan hospital; key to susceptibility category: S: susceptible; R: resistant; I: intermediate; settings: ref Asan hospital, cited from earlier work; for MIC: ASEC 15 (AmpC), resistance information of clinical isolate; for susceptibility category: ASEC 15
MDR E. coli ASEC 19 = test system: MDR E. coli ASEC 19; design: method as in Asan hospital; key to susceptibility category: S: susceptible; R: resistant; I: intermediate; settings: ref Asan hospital, cited from earlier work; for MIC: ASEC 19 (AmpC), resistance information of clinical isolate; for susceptibility category: ASEC 19
MDR E. coli ASEC 11 = test system: MDR E. coli ASEC 11; design: method as in Asan hospital; key to susceptibility category: S: susceptible; R: resistant; I: intermediate; settings: ref Asan hospital, cited from earlier work; for MIC: ASEC 11 (ESBL), resistance information of clinical isolate; for susceptibility category: ASEC 11
[3] = ATCC25922, read-out: MIC after 25 passages
[4] = ATCC25922, read-out: MIC at passage 1
[5] = read-out: MIC, value in parentheses

SMILES	MIC (MDR E. coli ASEC 18)	susceptibility category (MDR E. coli ASEC 18)	MIC (MDR E. coli ASEC 10)	susceptibility category (MDR E. coli ASEC 10)	MIC (MDR E. coli ASEC 8)	susceptibility category (MDR E. coli ASEC 8)	MIC (MDR E. coli ASEC 3)	susceptibility category (MDR E. coli ASEC 3)	MIC (MDR E. coli ASEC 6)	susceptibility category (MDR E. coli ASEC 6)	MIC (MDR E. coli ASEC 12)	susceptibility category (MDR E. coli ASEC 12)	MIC (MDR E. coli ASEC 14)	susceptibility category (MDR E. coli ASEC 14)	MIC (MDR E. coli ASEC 13)	susceptibility category (MDR E. coli ASEC 13)	MIC (MDR E. coli ASEC 17)	susceptibility category (MDR E. coli ASEC 17)	MIC (MDR E. coli ASEC 7)	susceptibility category (MDR E. coli ASEC 7)	also measured
C[C@@H](O)[C@H]1C(=O)N2C(C(=O)O)=C(S[C@@H]3CN[C@H](C(=O)N(C)C)C3)[C@H](C)[C@H]12 [Meropenem]	<= 1 μg mL-1	S	<= 1 μg mL-1	S	<= 1 μg mL-1	S	> 8 µg/mL	R	> 8 µg/mL	R	> 8 µg/mL	R	8 µg/mL (≈ 20.9 µM)	R	> 8 µg/mL	R	<= 1 μg mL-1	S	<= 1 μg mL-1	S	fold increase of MIC after 25 passages (E. coli ATCC 25922): 8 fold; MIC (E. coli ATCC 25922; [3]): 0.25 µM (≈ 0.0959 µg/mL); MIC (E. coli ATCC 25922; [4]): 0.0312 µM (≈ 0.012 µg/mL); MIC ([1]; ATCC25922): 0.0312 µM (≈ 0.012 µg/mL); MIC [1, 5]: 0.0312 µM (≈ 0.012 µg/mL); MIC ([2]; ATCC25922): 0.25 µM (≈ 0.0959 µg/mL); MIC [2, 5]: 0.0312 µM (≈ 0.012 µg/mL); MIC (MDR E. coli ASEC 9): <= 1 μg mL-1; susceptibility category (MDR E. coli ASEC 9): S; MIC (MDR E. coli ASEC 2): > 8 µg/mL; susceptibility category (MDR E. coli ASEC 2): R; MIC (MDR E. coli ASEC 4): > 8 µg/mL; susceptibility category (MDR E. coli ASEC 4): R; MIC (MDR E. coli ASEC 15): <= 1 μg mL-1; susceptibility category (MDR E. coli ASEC 15): S; MIC (MDR E. coli ASEC 19): <= 1 μg mL-1; susceptibility category (MDR E. coli ASEC 19): S; MIC (MDR E. coli ASEC 11): <= 1 μg mL-1; susceptibility category (MDR E. coli ASEC 11): S
CC(C)(O/N=C(\C(=O)N[C@@H]1C(=O)N2C(C(=O)[O-])=C(C[n+]3ccccc3)CS[C@H]12)c1csc(N)n1)C(=O)O [Ceftazidime]	> 16 µg/mL	R	16 µg/mL (≈ 29.3 µM)	R	> 16 µg/mL	R	> 16 µg/mL	R	> 16 µg/mL	R	16 µg/mL (≈ 29.3 µM)	R	> 16 µg/mL	R	> 16 µg/mL	R	> 16 µg/mL	R	> 16 µg/mL	R	fold increase of MIC after 25 passages (E. coli ATCC 25922): 512 fold; MIC (E. coli ATCC 25922; [3]): 128 µM (≈ 70 µg/mL); MIC (E. coli ATCC 25922; [4]): 0.25 µM (≈ 0.137 µg/mL); MIC ([1]; ATCC25922): 128 µM (≈ 70 µg/mL); MIC [1, 5]: 0.25 µM (≈ 0.137 µg/mL); MIC ([2]; ATCC25922): 0.25 µM (≈ 0.137 µg/mL); MIC [2, 5]: 0.25 µM (≈ 0.137 µg/mL); MIC (MDR E. coli ASEC 9): > 16 µg/mL; susceptibility category (MDR E. coli ASEC 9): R; MIC (MDR E. coli ASEC 2): > 16 µg/mL; susceptibility category (MDR E. coli ASEC 2): R; MIC (MDR E. coli ASEC 4): > 16 µg/mL; susceptibility category (MDR E. coli ASEC 4): R; MIC (MDR E. coli ASEC 15): > 16 µg/mL; susceptibility category (MDR E. coli ASEC 15): R; MIC (MDR E. coli ASEC 19): > 16 µg/mL; susceptibility category (MDR E. coli ASEC 19): R; MIC (MDR E. coli ASEC 11): > 16 µg/mL; susceptibility category (MDR E. coli ASEC 11): R
